Calls of active or inactive are those of the source. The rule behind the calls is not given here.

Data set [1] concerns Mus musculus. As to the kind of experiment: Hypothermic effect in po dosed ddY mouse measured after 60 mins of treatment. Format: ADME, organism-based. As to conditions: in vivo, 1 h.
Data set [2] has as its target T1, 5-hydroxytryptamine receptor 2B (Homo sapiens, UniProt P41595). As to the kind of experiment: Displacement of [3H]Mesulergine from human 5-HT2B receptor expressed in HEK293-EBNA cells by liquid scintillation counting. Type of data set: cell-based. Background: Displacement assays read how much labelled ligand stays bound in the presence of the test substance.
The target of data set [3] is T2, 5-hydroxytryptamine receptor 7 (Homo sapiens, UniProt P34969). As to the kind of experiment: Displacement of [3H]HT from human 5-HT7 receptor expressed in CHO cells by liquid scintillation counting. Format: cell-based.
Data set [4] deals with Mus musculus. As to the kind of experiment: Reversal of 5-carboxamidotryptamine-incued hypothermia in po dosed ddY mouse measured after 60 mins of treatment. Format: functional. The conditions noted are these: 1 h, read-out: MED.
Data set [5] has as its target 5-hydroxytryptamine receptor 2A (Homo sapiens, UniProt P28223). As to the kind of experiment: Binding affinity to 5-HT2A receptor (unknown origin).
Data set [6] has as its system Cavia porcellus. As to the kind of experiment: Suppression of 5-HT-induced dural plasma protein extravasation in po dosed Hartley guinea pig after 16 hrs. Type of data set: functional, organism-based.
In data set [7] the target is T3, Adrenergic receptor alpha-1 (Homo sapiens, UniProt P35348+P25100+P35368).
T3 sequence (P35348 whole entry): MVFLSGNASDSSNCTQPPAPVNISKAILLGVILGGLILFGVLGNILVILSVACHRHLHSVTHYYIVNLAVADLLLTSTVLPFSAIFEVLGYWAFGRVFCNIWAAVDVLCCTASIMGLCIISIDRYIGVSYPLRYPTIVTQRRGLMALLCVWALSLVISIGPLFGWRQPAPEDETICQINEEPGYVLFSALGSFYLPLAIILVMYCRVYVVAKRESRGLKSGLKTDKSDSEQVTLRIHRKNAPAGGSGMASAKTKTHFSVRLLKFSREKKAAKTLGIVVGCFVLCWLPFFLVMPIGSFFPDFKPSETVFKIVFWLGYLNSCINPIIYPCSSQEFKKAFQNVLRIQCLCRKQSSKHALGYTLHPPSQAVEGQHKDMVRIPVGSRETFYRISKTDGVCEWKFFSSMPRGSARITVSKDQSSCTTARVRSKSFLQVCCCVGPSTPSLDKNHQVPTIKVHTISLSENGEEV
T3 sequence (P25100 whole entry): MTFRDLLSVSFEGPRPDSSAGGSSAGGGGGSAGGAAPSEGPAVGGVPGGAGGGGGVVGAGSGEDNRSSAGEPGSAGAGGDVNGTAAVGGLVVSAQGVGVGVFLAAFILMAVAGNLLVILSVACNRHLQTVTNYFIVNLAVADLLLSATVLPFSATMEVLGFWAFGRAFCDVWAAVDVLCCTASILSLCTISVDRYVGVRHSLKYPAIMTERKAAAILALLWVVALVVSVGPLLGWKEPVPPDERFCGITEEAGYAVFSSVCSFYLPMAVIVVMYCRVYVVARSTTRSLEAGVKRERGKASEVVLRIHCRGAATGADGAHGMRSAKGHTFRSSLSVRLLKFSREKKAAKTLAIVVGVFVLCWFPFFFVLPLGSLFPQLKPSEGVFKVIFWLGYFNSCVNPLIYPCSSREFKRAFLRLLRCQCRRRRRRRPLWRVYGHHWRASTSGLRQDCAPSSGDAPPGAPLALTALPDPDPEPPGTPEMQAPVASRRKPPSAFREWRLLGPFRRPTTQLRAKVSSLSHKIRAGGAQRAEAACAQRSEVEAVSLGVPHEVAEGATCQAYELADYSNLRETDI
T3 sequence (P35368 whole entry): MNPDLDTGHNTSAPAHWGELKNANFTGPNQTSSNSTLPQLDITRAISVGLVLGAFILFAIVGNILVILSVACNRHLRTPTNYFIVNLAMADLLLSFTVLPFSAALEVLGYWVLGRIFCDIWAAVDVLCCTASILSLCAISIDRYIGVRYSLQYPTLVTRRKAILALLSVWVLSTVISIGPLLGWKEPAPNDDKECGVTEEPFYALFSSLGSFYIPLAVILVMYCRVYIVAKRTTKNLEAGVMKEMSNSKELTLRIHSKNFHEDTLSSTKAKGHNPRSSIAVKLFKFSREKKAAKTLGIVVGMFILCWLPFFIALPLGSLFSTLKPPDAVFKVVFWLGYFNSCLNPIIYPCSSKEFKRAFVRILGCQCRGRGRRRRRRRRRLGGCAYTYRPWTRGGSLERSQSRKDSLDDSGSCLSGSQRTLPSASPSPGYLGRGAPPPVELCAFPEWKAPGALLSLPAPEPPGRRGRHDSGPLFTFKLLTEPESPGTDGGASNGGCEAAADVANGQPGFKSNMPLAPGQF
As to the kind of experiment: Binding affinity to alpha-1 adrenergic receptor (unknown origin).

In data set [8] the target is T2, 5-hydroxytryptamine receptor 7. As to the kind of experiment: Inhibition of human 5-HT7 receptor expressed in CHO cells assessed as cAMP production by EIA system. Type of data set: functional, cell-based. Background: Cyclic AMP is a second messenger, typically raised through Gs and lowered through Gi signalling.
Data set [9] addresses T4, 5-hydroxytryptamine receptor 2C (Homo sapiens, UniProt P28335).
T4 sequence (P28335 whole entry): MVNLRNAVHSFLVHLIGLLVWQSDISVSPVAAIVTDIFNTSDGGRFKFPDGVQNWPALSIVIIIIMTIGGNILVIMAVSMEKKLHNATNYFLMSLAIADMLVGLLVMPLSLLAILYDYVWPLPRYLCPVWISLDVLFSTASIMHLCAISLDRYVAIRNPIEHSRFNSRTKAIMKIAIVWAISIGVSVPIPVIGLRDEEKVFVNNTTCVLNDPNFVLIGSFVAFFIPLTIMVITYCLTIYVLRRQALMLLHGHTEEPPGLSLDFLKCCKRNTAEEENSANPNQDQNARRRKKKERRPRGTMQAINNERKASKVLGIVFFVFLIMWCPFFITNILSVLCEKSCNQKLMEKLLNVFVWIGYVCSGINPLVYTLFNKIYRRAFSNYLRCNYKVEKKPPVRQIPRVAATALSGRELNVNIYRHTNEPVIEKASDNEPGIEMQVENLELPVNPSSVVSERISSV
As to the kind of experiment: Binding affinity to 5-HT2C receptor (unknown origin).

Data set [10] concerns the target T5, Muscarinic acetylcholine receptor M1 (Homo sapiens, UniProt P11229).
T5 sequence (P11229 whole entry): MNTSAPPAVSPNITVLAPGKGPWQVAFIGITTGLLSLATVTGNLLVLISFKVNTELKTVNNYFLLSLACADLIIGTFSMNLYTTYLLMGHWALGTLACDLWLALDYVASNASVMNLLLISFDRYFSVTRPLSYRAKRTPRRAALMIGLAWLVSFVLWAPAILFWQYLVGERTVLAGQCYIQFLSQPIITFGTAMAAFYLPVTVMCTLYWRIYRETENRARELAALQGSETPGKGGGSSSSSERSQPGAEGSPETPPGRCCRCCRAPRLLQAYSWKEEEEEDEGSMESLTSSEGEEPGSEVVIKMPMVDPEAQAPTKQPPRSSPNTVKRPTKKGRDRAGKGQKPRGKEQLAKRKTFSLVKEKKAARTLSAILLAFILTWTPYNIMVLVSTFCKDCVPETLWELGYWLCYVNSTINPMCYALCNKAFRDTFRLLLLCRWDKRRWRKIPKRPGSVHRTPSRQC
As to the kind of experiment: Binding affinity to muscarinic M1 receptor (unknown origin).

For data set [11], the system named is Cavia porcellus. As to the kind of experiment: Suppression of 5-HT-induced dural plasma protein extravasation in Hartley guinea pig at 30 mg/kg, po after 16 hrs. Type of data set: functional, organism-based. Set-up: dose 30 mg/kg.
The target in data set [12] is D(2) dopamine receptor (Homo sapiens, UniProt P14416). As to the kind of experiment: Binding affinity to dopamine D2 receptor (unknown origin).
For data set [13], the target named is T1, 5-hydroxytryptamine receptor 2B. As to the kind of experiment: Inhibition of human 5-HT2B receptor expressed in HEK293-EBNA cells assessed as [3H]PI metabolism by liquid scintillation counting. Type of data set: cell-based.

T1 sequence (P41595 whole entry): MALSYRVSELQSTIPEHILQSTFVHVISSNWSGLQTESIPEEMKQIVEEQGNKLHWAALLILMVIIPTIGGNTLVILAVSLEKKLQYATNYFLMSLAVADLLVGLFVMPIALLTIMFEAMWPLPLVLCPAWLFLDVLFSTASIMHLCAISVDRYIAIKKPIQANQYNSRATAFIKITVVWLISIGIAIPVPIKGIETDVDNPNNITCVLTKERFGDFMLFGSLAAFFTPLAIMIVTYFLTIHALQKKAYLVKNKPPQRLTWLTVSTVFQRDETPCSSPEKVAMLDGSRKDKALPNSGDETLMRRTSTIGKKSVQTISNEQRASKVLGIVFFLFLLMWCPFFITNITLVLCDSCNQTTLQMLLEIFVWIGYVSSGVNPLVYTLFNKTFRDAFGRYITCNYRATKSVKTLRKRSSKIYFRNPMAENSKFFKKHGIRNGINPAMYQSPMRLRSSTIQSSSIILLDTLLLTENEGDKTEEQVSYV
T2 sequence (P34969 whole entry): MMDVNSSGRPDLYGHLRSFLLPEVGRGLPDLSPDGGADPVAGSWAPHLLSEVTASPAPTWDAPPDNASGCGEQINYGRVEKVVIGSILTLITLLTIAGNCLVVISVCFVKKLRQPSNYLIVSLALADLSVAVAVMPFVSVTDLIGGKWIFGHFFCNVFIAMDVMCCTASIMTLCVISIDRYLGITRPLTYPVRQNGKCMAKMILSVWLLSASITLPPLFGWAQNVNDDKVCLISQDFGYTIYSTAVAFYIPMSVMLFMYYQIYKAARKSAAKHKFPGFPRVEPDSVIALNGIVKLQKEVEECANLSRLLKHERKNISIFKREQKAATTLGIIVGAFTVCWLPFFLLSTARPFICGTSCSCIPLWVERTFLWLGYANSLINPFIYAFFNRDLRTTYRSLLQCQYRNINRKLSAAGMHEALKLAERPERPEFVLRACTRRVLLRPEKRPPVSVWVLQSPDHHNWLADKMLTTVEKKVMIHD
Sequence of D(2) dopamine receptor (P14416 whole entry): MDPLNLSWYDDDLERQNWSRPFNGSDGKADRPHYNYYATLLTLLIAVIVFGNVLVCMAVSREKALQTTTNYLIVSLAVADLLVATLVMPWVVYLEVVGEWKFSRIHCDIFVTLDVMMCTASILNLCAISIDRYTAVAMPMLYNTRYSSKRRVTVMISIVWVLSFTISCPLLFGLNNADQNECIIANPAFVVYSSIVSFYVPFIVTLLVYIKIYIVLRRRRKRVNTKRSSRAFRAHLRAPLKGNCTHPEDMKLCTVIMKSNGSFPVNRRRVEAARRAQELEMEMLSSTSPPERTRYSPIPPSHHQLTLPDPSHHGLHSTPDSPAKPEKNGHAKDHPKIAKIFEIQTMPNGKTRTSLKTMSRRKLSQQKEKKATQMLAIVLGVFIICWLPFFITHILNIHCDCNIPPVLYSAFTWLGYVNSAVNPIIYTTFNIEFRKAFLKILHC
Sequence of 5-hydroxytryptamine receptor 2A (P28223 whole entry): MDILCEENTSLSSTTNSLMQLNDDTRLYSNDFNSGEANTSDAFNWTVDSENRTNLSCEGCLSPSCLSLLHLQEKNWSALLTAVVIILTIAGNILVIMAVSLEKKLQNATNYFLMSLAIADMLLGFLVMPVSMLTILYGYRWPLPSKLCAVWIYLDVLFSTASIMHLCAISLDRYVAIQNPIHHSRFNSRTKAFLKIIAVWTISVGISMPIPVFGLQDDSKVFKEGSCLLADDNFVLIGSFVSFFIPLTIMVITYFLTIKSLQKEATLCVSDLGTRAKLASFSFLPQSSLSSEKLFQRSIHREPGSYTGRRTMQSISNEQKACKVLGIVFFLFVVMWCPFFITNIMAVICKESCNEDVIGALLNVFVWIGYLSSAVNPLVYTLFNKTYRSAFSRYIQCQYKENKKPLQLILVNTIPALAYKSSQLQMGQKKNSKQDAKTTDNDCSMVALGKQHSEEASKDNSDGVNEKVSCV

In the case of `Cc1cccc2c1-c1ccc(C(=O)N=C(N)N)cc1C2O.Cl` (stereo not given), the Activity entry in data set [1] is listed as “Toxic”. Further, the values for the Ki in data set [2] and in [3] were 0.00081 µM and 0.014 µM, respectively.
As to `NC(N)=NC(=O)c1ccc2c(c1)C(O)c1cc(Cl)ccc1-2` (stereo not given), the results for the Ki in data set [2] and in [3] were 0.0017 µM and more than 1 µM, respectively.
For the compound `CCc1cccc2c1-c1ccc(C(=O)N=C(N)N)cc1C2O` (stereo not given), the inhibition constant (Ki) in [2] amounted to 0.0016 µM; in [3], 0.0041 µM. Further, the minimal effective dose in data set [4] was more than 30 mg/kg.
`NC(N)=NC(=O)c1ccc2c(c1)C(O)c1ccc(Cl)cc1-2` (stereo not given): the Ki in data set [2] came out at 0.011 µM; in [3] it was 0.16 µM.
As for `NC(N)=NC(=O)c1ccc2c(c1)C(O)c1cccc(Cl)c1-2` (stereo not given), the Ki in data set [2] was determined as 0.0015 µM; in data set [3], 0.041 µM.
Consider `CC1c2ccccc2-c2ccc(C(=O)N=C(N)N)cc21.Cl` (stereo not given), for which, in data set [1], the Activity result is “Toxic”. The results for the Ki in data set [2] and in [3] were 0.0044 µM and 0.0041 µM, respectively.
On to `NC(N)=NC(=O)c1ccc2c(c1)C(O)c1c(Cl)cccc1-2` (stereo not given), for which the Ki in data set [2] was 0.00011 µM; in data set [3], 0.033 µM.
On the same counts, the results for `COCc1cccc2c1-c1ccc(C(=O)N=C(N)N)cc1C2O` (stereo not given) are 0.0063 µM and 0.05 µM.
In the case of `Cc1cccc2c1-c1ccc(C(=O)N=C(N)N)cc1C2(C)O.Cl` (stereo not given), the Ki in [2] was 0.0011 µM; in data set [3], 0.004 µM. Moreover, in data set [4], the minimal effective dose was more than 30 mg/kg.
`CC1(O)c2ccccc2-c2ccc(C(=O)N=C(N)N)cc21.Cl` (stereo not given): the inhibitory constant (Ki) is more than 1 µM in [5]; more than 1 µM in data set [7]; 0.0043 µM in [2]; 0.39 µM in [9]; more than 1 µM in data set [10]; 0.0043 µM in data set [3]. The inhibitory constant (Ki) in data set [12] is more than 1 µM. Moreover, the inhibition result in [6] is “Dose-dependent effect”. Moreover, the IC50 in data set [8] is 0.059 µM; in [13] it was 0.052 µM. Further, in data set [11], the inhibition entry was “Active”. In addition, the minimal effective dose in [4] turned out to be 30 mg/kg.
Regarding `NC(N)=NC(=O)c1ccc2c(c1)C(O)c1cccc(F)c1-2` (stereo not given), the Ki in data set [2] was determined as 0.00091 µM; in data set [3], 0.029 µM.
For the compound `CCc1cccc2c1-c1ccc(C(=O)N=C(N)N)cc1C2(C)O.Cl` (stereo not given), the Ki in [2] is 0.00071 µM; in data set [3], 0.0023 µM. The minimal effective dose in [4] is more than 30 mg/kg.
With `CC(=O)NC1c2ccccc2-c2ccc(C(=O)N=C(N)N)cc21` (stereo not given), the Ki in data set [2] is 0.034 µM; in data set [3], 0.18 µM.
The corresponding values for `NC(N)=NC(=O)c1ccc2c(c1)C(O)c1cccc(CO)c1-2` (stereo not given) are 0.0066 µM and 0.041 µM.
Regarding `NC(N)=NC(=O)c1ccc2c(c1)C(O)c1ccccc1-2` (stereo not given), the minimal effective dose in [4] is more than 30 mg/kg.
Turning to `NC(N)=NC(=O)c1ccc2c(c1)C(N)c1ccccc1-2` (stereo not given), the values for the Ki in data set [2] and in data set [3] were 0.018 µM and 0.043 µM, respectively.
In the case of `N=C(N)NC(=O)c1ccc2c(c1)C(F)c1ccccc1-2` (stereo not given), the Ki in data set [2] amounted to 0.0009 µM; in data set [3], 0.057 µM.
On the same counts, the results for `Cc1cccc2c1C(O)c1cc(C(=O)N=C(N)N)ccc1-2` (stereo not given) are 0.00067 µM and 0.087 µM.

As usually defined, the Ki is the equilibrium dissociation constant of an inhibitor or competing ligand from its target. Lower therefore signals higher affinity. The IC50 is the concentration that inhibits the measured activity by half.

The values above are taken from ChEMBL document CHEMBL3352264, “Synthesis and structure-activity relationships of new carbonyl guanidine derivatives as novel dual 5-HT₂B and 5-HT₇ receptor antagonists. Part 2” (Bioorg Med Chem, 2014).
